US20250263671A1, “NEURON-INNERVATED ASSEMBLOIDS AND METHODS OF MAKING THE SAME” (University of Georgia Research Foundation, Inc., priority 2024, published 2025)
“Also recorded” adds a separate entry of the source.

Assays:
neonatal mouse hearts = conditions: symN lesions in neonatal mouse hearts; cited from earlier work
hSCAs [1] = assay: labetalol treatment during hSCA development: assembloid size and cell count; type: cell-based, human
Protocol: (§1) The effect of SymN activation on heart development has been reported, potentially through NE and adrenergic signaling^22,23. […] To test if the symNs in hSCAs play a regulatory role on cardiac development and maturation, the assembloids were treated with α- and β-adrenergic receptor antagonist labetalol (LAB, 1 μM) to fully block the NE signaling during the growth of the hSCAs (FIG. 4B). The drug was given from wk3, the stage when the assembloid growth almost reaches its plateau (FIG. 1E). Given that symN activity may promote cellular hyperplastic to hypertrophic transition of CM^22,23, the overall size of hSCAs was compared on wk5 after LAB treatment.

hSCAs [2] = assay: RT-qPCR of wk5 hSCAs for cardiac maturity markers after labetalol treatment; type: cell-based, human; conditions: LAB 1 μM given from wk3, wk5 hSCAs, vs DMSO
Protocol: (§2) 0.5×10^6 cells were collected using Trizol (Invitrogen, 15596026) for each sample. Reverse transcription with 1 μg total RNA was performed using iScript™ Reverse Transcription Supermix (Bio-Rad, 170884). SYBR green (Bio-Rad) RT-qPCR was ran using CFX96 Touch Deep Well Real-Time PCR Detection System (Bio-Rad), and analyzed by CFX Maestro.
as §1

hPSC-derived CMs = conditions: CMs alone, without physical connection with symNs; cited from earlier work
symNs within the hSCAs = conditions: nicotine 1 μM, wk5 hSCAs
Protocol: To assess symN activity, calcium (Ca^2+) imaging was performed using Fluo-4 Ca^2+ labeling. To be able to distinguish Ca^2+ fluxes in symNs and not in cardiac tissues, symNblast were differentiated using the EF1-RFP reporter hPSC line and mixed with unlabeled cardiac progenitors (FIG. 3F).

hPSC-derived symNs = conditions: nicotine treatment; cited from earlier work
hypoxic hSCAs = assay: low oxygen (hypoxia-induced) cardiac infarction model on wk5 hSCAs; type: cell-based, human
Protocol: as §2
Wk5 hSCAs were fed with hSCA medium and placed into the hypoxia chamber (incubator subchamber system with O2/CO2 setpoint control, BioSpherix) with 10% O2, control group was maintained in regular culture condition (21% O2). hSCAs in both conditions were fed with fresh hSCA medium every 3 days for 10 days.
To test the effect of sympathetic input to cardiac function in the assembloids in a diseased state, a strategy was developed to model myocardial infarction. A model of myocardial infarction in cardiac organoids has been described^55. In this model, a moderate hypoxic environment (10% O2) was applied, which prevented massive and sudden cell death in 3D cardiac microtissues and allowed the observation of the progression of infarction. In addition to hypoxia, exogenous NE was added to the cardiac organoids to mimic the effects of increased sympathetic tone to the heart. […] The hypoxic stress stimulated overproduction of endogenous NE from symNs in hSCAs, measured via the NS510 probe and ELISA (FIG. 5C). […]

NCCc1cc(O)c(O)cc1O [6-OHDA, 6-hydroxydopamine]
proliferation of CMs (neonatal mouse hearts): increased

CC(CCc1ccccc1)NCC(O)c1ccc(O)c(C(N)=O)c1 (stereo not drawn) [LAB, labetalol]
overall size of hSCAs (hSCAs [1]; LAB 1 μM given from wk3, compared on wk5, vs DMSO): Differences in assembloid size were not observed; also recorded: not altered
hSCA cell number (hSCAs [1]; LAB-treated organoids compared to control, wk5): not altered
expression of markers of CM maturity (CX43, α-ACTININ, and CD36), RT-qPCR (hSCAs [2]): decreased expressions

CC(C)NCC(O)c1ccc(O)c(O)c1 (stereo not drawn) [isoproterenol]
improvement of CM maturity (mature cardiac gene expression, functional cardiac activity) (hPSC-derived CMs): not sufficient to induce such maturity improvement

CN1CCCC1c1cccnc1 (stereo not drawn) [nicotine]
hSCA beating efficiency (symNs within the hSCAs): increased hSCA beating efficiency
spontaneous firing of action potentials (hPSC-derived symNs): upregulated

CC(C)NCC(O)COc1cccc2ccccc12 (stereo not drawn) [propranolol]
impaired expression of Ca2+ handling genes, RT-qPCR (hypoxic hSCAs; propranolol 1 μM in addition to low oxygen (10% O2, 10 days)): rescued
cardiac fibrosis caused by hypoxic stress (hypoxic hSCAs; propranolol along with the hypoxic stress): rescued
